# B1: TrzD, a cyanuric acid hydrolase from Acidovorax citrulli (enzyme, UniProt P0A3V4 1-370, looked up)
# chain: MQAQVFRVPMSNPADVSGVAKLIDEGVIRAEEVVCVLGKTEGNGCVNDFTRGYTTLAFKVYFSEKLGVSRQEVGERIAFIMSGGTEGVMAPHCTIFTVQKTDNKQKTAAEGKRLAVQQIFTREFLPEEIGRMPQVTETADAVRRAMREAGIADASDVHFVQVKCPLLTAGRMHDAVERGHTVATEDTYESMGYSRGASALGIALALGEVEKANLSDEVITADYSLYSSVASTSAGIELMNNEIIVMGNSRAWGGDLVIGHAEMKDAIDGAAVRQALRDVGCCENDLPTVDELGRVVNVFAKAEASPDGEVRNRRHTMLDDSDINSTRHARAVVNAVIASIVGDPMVYVSGGSEHQGPAGGGPVAVIARTA
# notes: TrzD, cyanuric acid hydrolase of Acidovorax citrulli; full-length trzD gene in pET28b(+); 370 amino acids, ~39.5 kDa; source: E. coli BL21 (DE3), purified (Ni-NTA, Superdex-200 gel filtration); not shown: His-tag, N-terminal, kept
# Tests used:
# TrzD = target: T1, TrzD (Enterobacter cloacae, UniProt P0A3V4); assay: co-crystallisation with substrate, X-ray […] A; co-product CO2 seen in density; format: biochemical; settings: 10 mM cyanuric acid in drop, BIS-TRIS pH 6.5, 20 °C; Mg2+ bound in domain 3; turned over, cyanuric acid itself not reported in the model
# T1 sequence (P0A3V4 1-370): B1 chain
# [1] = target: the molecule itself; assay: SEC + other: dynamic light scattering; purified TrzD in solution; conditions of this experiment not told
Molecule,"co-crystallisation with substrate, X-ray 2.19 A; co-product CO2 seen in density (TrzD)",stoichiometry N [1]
"O=c1[nH]c(=O)[nH]c(=O)[nH]1 [cyanuric acid, 1,3,5-triazinane-2,4,6-trione]",The protein was crystallized with its natural substrate cyanuric acid by hanging drop,–
B1,–,4

# Reference: article PMC5366886, “Structure of the Cyanuric Acid Hydrolase TrzD Reveals Product Exit Channel” (Scientific Reports, 2017)
